From EP0801071A1, “LEWIS X DERIVATIVE AND PROCESS FOR PRODUCING THE SAME” (SUMITOMO PHARMACEUTICALS COMPANY, LIMITED, priority 1994, dated 1996)

Assays:
[1] = target: T1, rsE-selectin (Homo sapiens, UniProt P16581); experiment: Inhibition of adhesion of HL-60 cells to plate-coated rsE-selectin (Experiment 2); assay type: cell-based; conditions: 50% inhibition concentration of adhesion of rsE-selectin to HL-60, from inhibition curves; medium-only well = 100%
T1 sequence (P16581 22-556 limits assumed): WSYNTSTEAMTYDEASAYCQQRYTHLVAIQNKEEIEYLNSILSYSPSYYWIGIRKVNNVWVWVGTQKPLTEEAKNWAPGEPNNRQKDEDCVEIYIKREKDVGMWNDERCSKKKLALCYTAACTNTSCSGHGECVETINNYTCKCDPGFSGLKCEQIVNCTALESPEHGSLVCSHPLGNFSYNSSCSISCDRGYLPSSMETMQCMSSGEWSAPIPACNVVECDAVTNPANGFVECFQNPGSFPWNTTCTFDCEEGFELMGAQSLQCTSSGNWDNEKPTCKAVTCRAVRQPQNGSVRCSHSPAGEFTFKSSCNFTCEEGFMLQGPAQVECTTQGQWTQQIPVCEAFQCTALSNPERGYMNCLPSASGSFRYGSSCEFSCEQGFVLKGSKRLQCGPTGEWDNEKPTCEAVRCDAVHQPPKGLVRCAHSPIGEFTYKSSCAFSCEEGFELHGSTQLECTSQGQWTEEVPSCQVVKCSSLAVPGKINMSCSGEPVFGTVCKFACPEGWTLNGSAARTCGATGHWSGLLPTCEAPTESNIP
Procedure: The DPBS solution containing rsE-selectin (3 µg/ml) was added to a 96 well plate at 50 µl/well, while wells filled with DPBS without rsE-selectin (non-specific adhesion control) were prepared on the same plate, and the plate was kept at room temperature for 3 hours. Then wells were washed 3 times with a DPBS/BSA solution at 200 µl/well, and DPBS/BSA solution was added at 200 µl/well, and the plate was kept at room temperature for 1 hour. After removing DPBS/BSA solution, a medium containing NWB or NWB plus a compound of the invention was added at 40 µl/well.
Frozen HL-60 cells were thawed promptly at 37°C, and washed with NWB cooled to 4°C 3 times by centrifugation at 1500rpm × 5 min. The cells were adjusted with NWB to 1×10^7 cells/ml, added to the plate at 20 µl/well, and the plate was kept at room temperature for 15 min.
The plate was set on a plate washer to remove nonadhesive HL-60 cells. The plate washer was set at slow mode, cycle 3 (washing 3 times), soak 0 sec., 12 rows (along vertical direction), and volume of NWB for 1 washing 200 µl/well at room temperature.
A citrate solution containing 0.1% NP-40 at room temperature was added at 50 µl/well, and the plate was kept at room temperature for 5 minutes. The substrate solution (4 mg OPDA, 4µl 30% H2O2/4 ml citrate) was added at 50 µl/well, protected from light with aluminum foil, allowed to develop color for 5 to 20 minutes, and the reaction was terminated by adding 4N-H2SO4 at 50µl/well. The substrate solution was used within 30 minutes after preparation.
The OD490 of each well was determined, and the OD490 value of the well for nonspecific adhesion was subtracted from the value of each well. The value found in a well containing only the medium was used as a control (100%) and the amount of adhesion in wells containing Compounds (15), (31), (33)-(40) or (41) of the invention was calculated by percent in terms of the values of the control. By drawing inhibition curves, 50% inhibition concentration (IC50) was determined.
The materials for the experiment were obtained from the following sources. rsE-selectin: producible by the method described in J. C. Poulson, J. Am. Chem. Soc., 117: 66-79 (1995). The sample of rsE-selectin used in the experiments was kindly supplied by the author. HL-60 : ATCC Corp. DPBS (Dulbecco Phosphate Buffered Saline) : GIBCO Corp. BSA (Bovine Serum Albumin) : Sigma Corp. HBSS (Hanks Balanced Salt Solution) : GIBCO Corp. OPDA (Ortho-phenylenediamine) : Sigma Corp. RPMI 1640 medium : GIBCO Corp. Bovine Fetal Serum : GIBCO Corp. Plate : Immulon. 2. (flat bottomed) : Dynatech Laboratories. Plate washer; Microplate Washer : Molecular Devices Corp.
A compound of the present invention was adjusted to 100mM with DPBS, and pH was adjusted to 7.1-7.4.
HL-60 was cultured in RPMI 1640 medium supplemented with 10% Bovine Fetal Serum. Using a cell freezing solution consisting of 80% RPMI 1640 medium + 10% Bovine Fetal Serum + 10% DMSO, HL-60 was frozen at 1.5 × 10^7 cells per a tube according to a conventional method, and stocked at -80°C. This was used under sterile condition.
Composition of DPBS/BSA was DPBS + 1% BSA.
Composition of NWB was HBSS + 10mM-HEPES + 0.2%glucose + 1%BSA+ 1mM-CaCl2. These two solutions are prepared under sterile condition.
The citrate solution was prepared by dissolving 2.33 g of citric acid and 9.20 g of Na2HPO4·12H2O in 500 ml of desalted water.

[2] = tested on: adhesion of HUVEC to neutrophils; experiment: Inhibition of adhesion of neutrophils (treated with anti-CD18 antibody) to IL-1β-stimulated HUVEC (Experiment 1); assay type: cell-based, human; conditions: at a concentration of 0.05-0.5mM; wells without compound = 100%
Procedure: To each well of a 96 well plate was added a PBS solution containing 0.1% gelatine at 50 µl/well, and after 15 minutes at room temperature, the solution was removed with a Pasteur pipette. On the coated 96 well plate, human umbilical vein endothelial cells (HUVEC, 5th generation) were cultured until confluent. The culture medium was removed with a Pasteur pipette and the MEM medium containing 45 U/ml of IL-1β was added at 100 µl/well, and incubated for 4 hours. On the same plate, wells containing the MEM medium without IL-1β were prepared and similarly incubated for 4 hours.
Blood was collected from a healthy human using heparin as an anticoagulant. In a 50 ml-tube was placed 15 ml of neutrophil·monocyte fraction, and 25 ml of whole blood was gently layered. The brake function was released and centrifuged at 1700 rpm for 30 minutes at room temperature, and the neutrophil layer was collected and transferred into a 50 ml tube containing 30 ml of HBSS solution. The brake function was recovered and centrifuged at 3000 rpm for 3 minutes at room temperature, the supernatant was removed, and 30 ml of HBSS was added for resuspension. This procedure was repeated twice. The neutrophils were counted using hemocytometer, adjusted to 5×10^6 cells/ml with the HBSS solution, charged in a 15 ml tube, mixed with anti-CD18 antibody at final concentration of 10 µg/ml, and incubated for 1 hour with occasional gentle swirling.
MEM medium was removed from the HUVEC plate with a Pasteur pipette, a compound of the present invention diluted with MEM medium at 50 µl/well was added, and incubated for 20 minutes.
The neutrophils treated with anti-CD18 antibody were added to the HUVEC plate at 25 µl/well, and incubated for 5 minutes. […]
The OD490 of each well was determined, and the OD490 value of wells containing MEM medium without IL-1β was subtracted from that of each well. The value found in wells containing none of the compounds of the present invention was set to be 100% and the […] of the compound of the invention was assessed as shown in Figure 1. […]

Compound | IC50 [1] [µM] | inhibited the adhesion of HUVEC to neutrophils [2] [%]
CCOCCOCCO[C@@H]1O[C@H](CO)[C@@H](O[C@@H]2O[C@H](CO)[C@H](O)[C@H](O[C@]3(C(=O)O)C[C@H](O)[C@@H](NC(C)=O)[C@H]([C@H](O)[C@H](O)CO)O3)[C@H]2O)[C@H](O[C@@H]2O[C@@H](C)[C@@H](O)[C@@H](O)[C@@H]2O)[C@H]1NC(=O)c1ccc2ccccc2c1 [Compound 31, 2-(2-Ethoxyethoxy)ethyl (5-acetamido-3,5-dideoxy-α-D-glycero-D-galacto-2-nonulopyranosylonic acid)-(2→3)-O-(β-D-galactopyranosyl)-(1→4)-O-[α-L-fucopyranosyl-(1→3)-O]-(2-deoxy-2-naphthamido-β-D-glucopyranoside)] | 110 | ≥ 50
CC(=O)N[C@H]1[C@H]([C@H](O)[C@H](O)CO)O[C@@](O[C@H]2[C@@H](O)[C@@H](CO)O[C@@H](O[C@H]3[C@H](O[C@@H]4O[C@@H](C)[C@@H](O)[C@@H](O)[C@@H]4O)[C@@H](NC(=O)c4ccc5ccccc5c4)[C@H](OCCCCCCCCCO)O[C@@H]3CO)[C@@H]2O)(C(=O)O)C[C@@H]1O [Compound 35, 9-Hydroxynonyl (5-acetamido-3,5-dideoxy-α-D-glycero-D-galacto-2-nonulopyranosylonic acid)-(2→3)-O-(β-D-galactopyranosyl)-(1→4)-O-[α-L-fucopyranosyl-(1→3)-O ]-(2-deoxy-2-naphthamido-β-D-glucopyranoside)] | 50 | ≥ 50
COc1cc(CO[C@@H]2O[C@H](CO)[C@@H](O[C@@H]3O[C@H](CO)[C@H](O)[C@H](O[C@]4(C(=O)O)C[C@H](O)[C@@H](NC(C)=O)[C@H]([C@H](O)[C@H](O)CO)O4)[C@H]3O)[C@H](O[C@@H]3O[C@@H](C)[C@@H](O)[C@@H](O)[C@@H]3O)[C@H]2NC(=O)c2ccc3ccccc3c2)cc(OC)c1OC [Compound 15, 3,4,5-trimethoxybenzyl (5-acetamido-3,5-dideoxy-α-D-glycero-D-galacto-2-nonulopyra nosylonic acid)-(2→3)-O-(β-D-galacto-pyranosyl)-(1→4)-O-[α-L-fucopyranosyl-(1→3)-O]-(2-deoxy-2-naphthamido-β-D-glucopyranoside)] | 110 | ≥ 50
